# Where a name gives a salt, the structure may show the parent alone.
# Biological target: T1, epithelial sodium channel (ENaC) (Homo sapiens, UniProt P37088+P51168+P51170)
# T1 construct: host or cells: primary human bronchial epithelial cells (HBECs), differentiated at the air-liquid interface
# T1 sequence (P37088 1-669): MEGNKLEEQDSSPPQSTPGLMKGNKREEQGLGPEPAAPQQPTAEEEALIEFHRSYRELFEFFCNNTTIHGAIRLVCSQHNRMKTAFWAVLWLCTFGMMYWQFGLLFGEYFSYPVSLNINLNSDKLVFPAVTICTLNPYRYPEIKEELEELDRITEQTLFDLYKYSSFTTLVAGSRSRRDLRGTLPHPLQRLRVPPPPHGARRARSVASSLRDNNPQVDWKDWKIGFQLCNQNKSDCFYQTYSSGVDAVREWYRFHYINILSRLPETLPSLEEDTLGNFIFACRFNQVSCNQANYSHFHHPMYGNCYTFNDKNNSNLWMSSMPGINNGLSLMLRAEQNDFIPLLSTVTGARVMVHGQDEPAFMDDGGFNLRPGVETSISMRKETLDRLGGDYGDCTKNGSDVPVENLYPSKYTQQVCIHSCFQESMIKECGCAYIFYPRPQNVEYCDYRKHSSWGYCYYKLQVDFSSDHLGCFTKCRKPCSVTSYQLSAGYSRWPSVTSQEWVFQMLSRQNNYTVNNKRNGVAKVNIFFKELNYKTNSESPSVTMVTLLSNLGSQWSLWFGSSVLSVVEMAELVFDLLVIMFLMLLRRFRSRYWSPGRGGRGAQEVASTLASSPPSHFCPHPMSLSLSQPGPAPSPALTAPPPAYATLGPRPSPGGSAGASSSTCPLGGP
# T1 sequence (P51168 1-640): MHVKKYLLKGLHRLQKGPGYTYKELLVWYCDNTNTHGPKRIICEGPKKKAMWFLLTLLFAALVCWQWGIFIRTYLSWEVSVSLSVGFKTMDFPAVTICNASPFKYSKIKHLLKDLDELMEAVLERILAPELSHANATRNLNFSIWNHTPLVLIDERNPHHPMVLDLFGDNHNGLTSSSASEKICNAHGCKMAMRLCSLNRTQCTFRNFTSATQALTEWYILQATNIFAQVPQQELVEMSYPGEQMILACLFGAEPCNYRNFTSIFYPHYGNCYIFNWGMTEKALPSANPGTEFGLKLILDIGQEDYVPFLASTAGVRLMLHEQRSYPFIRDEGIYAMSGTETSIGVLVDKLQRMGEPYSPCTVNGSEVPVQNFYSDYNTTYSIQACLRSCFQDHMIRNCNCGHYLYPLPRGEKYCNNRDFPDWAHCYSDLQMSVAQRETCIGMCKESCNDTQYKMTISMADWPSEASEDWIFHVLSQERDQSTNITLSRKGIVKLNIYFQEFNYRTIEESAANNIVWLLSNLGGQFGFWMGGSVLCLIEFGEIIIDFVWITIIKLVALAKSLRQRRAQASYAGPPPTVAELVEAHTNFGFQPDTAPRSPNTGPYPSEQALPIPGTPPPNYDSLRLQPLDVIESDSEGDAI
# T1 sequence (P51170 1-649): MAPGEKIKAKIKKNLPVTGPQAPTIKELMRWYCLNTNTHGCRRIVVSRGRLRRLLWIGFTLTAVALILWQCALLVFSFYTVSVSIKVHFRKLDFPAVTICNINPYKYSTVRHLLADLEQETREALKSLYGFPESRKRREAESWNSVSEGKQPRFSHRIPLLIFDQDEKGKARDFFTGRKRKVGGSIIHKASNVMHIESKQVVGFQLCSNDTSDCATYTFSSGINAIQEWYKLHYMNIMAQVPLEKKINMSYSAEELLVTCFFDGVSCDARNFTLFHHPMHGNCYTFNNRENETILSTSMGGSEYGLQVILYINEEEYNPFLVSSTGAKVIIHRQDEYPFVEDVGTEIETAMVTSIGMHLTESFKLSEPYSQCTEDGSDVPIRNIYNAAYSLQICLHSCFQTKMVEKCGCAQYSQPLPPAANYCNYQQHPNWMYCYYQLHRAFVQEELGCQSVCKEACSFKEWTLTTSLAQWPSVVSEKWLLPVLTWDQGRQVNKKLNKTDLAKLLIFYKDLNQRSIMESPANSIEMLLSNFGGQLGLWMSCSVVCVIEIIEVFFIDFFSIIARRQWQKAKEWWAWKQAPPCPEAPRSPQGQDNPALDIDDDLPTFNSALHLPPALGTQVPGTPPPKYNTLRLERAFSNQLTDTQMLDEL
# Assay: Short circuit current (ISC) measurements in human bronchial epithelial cells, inhibition of amiloride-sensitive ISC
# Type: cell-based
# Conditions: inhibition of the amiloride-sensitive ISC; HBECs cultured at air-liquid interface, Ussing chamber, compound added to apical chamber
# Description: Compounds of formula (I), hereinafter referred to alternatively as “agents of the invention”, are useful as pharmaceuticals. In particular, the compounds have good ENaC blocker activity and may be tested in the following assays.
# Human Bronchial Epithelial cells (HBECs) (Cambrex) were cultured under air-liquid interface conditions to provide a well differentiated mucociliary phenotype.
# HBECs were cultured using a modification of the method described by Gray and colleagues (Gray et al., 1996). Cells were seeded in plastic T-162 flasks and were grown in bronchial epithelial cell growth medium (BEGM; Cambrex) supplemented with bovine pituitary extract (52 μg/mL), hydrocortisone (0.5 μg/mL), human recombinant epidermal growth factor (0.5 ng/mL), epinephrine (0.5 μg/mL), transferrin (10 μg/mL), insulin (5 μg/mL), retinoic acid (0.1 μg/mL), triiodothyronine ([…]), gentamycin (50 μg/mL) and amphotericin B (50 ng/mL). Medium was changed every 48 hours until cells were 90% confluent. Cells were then passaged and seeded (8.25×10^5 cells/insert) on polycarbonate Snapwell inserts (Costar) in differentiation media containing 50% DMEM in BEGM with the same supplements as above but without triiodothyronine and a final retinoic acid concentration of 50 nM (all-trans retinoic acid). Cells were maintained submerged for the first 7 days in culture, after which time they were exposed to an apical air interface for the remainder of the culture period. At this time, media was changed to DMEM:F12 media containing 2% v/v Ultroser G for the remainder of culture. Amphotericin B was removed from all media 3 feeds prior to use in the Ussing Chambers. Cells were used between days 7 and 21 after establishment of the apical-air interface. At all stages of culture, cells were maintained at 37° C. in 5% CO2 in an air incubator.
# Snapwell inserts were mounted in Vertical Diffusion Chambers (Costar) and were bathed with continuously gassed Ringer solution (5% CO2 in O2; pH 7.4) maintained at 37° C. containing (in mM): 120 NaCl, 25 NaHCO3, 3.3 KH2PO4, 0.8 K2HPO4, 1.2 CaCl2, 1.2 MgCl2, and 10 glucose. The solution osmolarity was between 280 and 300 mOsmol/kg H2O for all physiological salt solutions used. Cells were voltage clamped to 0 mV (model EVC4000; WPI). RT was measured by applying a 1- or 2-mV pulse at 30-s intervals and calculating RT by Ohm's law. Data were recorded using a PowerLab workstation (ADInstruments).
# Test compounds were prepared as a 10 mM stock solution in DMSO (95%). Serial 3-fold dilutions were freshly prepared in an appropriate vehicle (distilled H2O or Ringers solution). The initial concentration was added to the apical chamber as a 1000× concentrate in 5 μL, resulting in a final 1× concentration the 5 mL volume of the Ussing chamber. Subsequent additions of compound were added in a 3.3 μL volume of the 1000× serially diluted stock solution. At the completion of the concentration-response experiment, amiloride (10 μM) was added into the apical chamber to enable the total amiloride-sensitive current to be measured. An amiloride control IC50 was established at the start of each experiment.
# Results are expressed as the mean % inhibition of the amiloride-sensitive ISC. Concentration-response curves were plotted and IC50 values generated using GraphPad Prism 3.02. Cell inserts were typically run in duplicate and the IC50 calculated on the mean % inhibition data.
row,Structure (SMILES),IC50 [µM]
1,"C[N+](C)(CCCNC(=O)Cc1ccc(OCc2ccccc2)cc1)CCNC(=O)c1nc(Cl)c(N)nc1N [Example 50, {3-[2-(4-Benzyloxy-phenyl)-acetylamino]-propyl}-{2-[(3,5-diamino-6-chloro-pyrazine-2-carbonyl)-amino]-ethyl}-dimethyl-ammonium bromide]",0.24
2,"CCC[C@@H](CNC(=O)c1nc(Cl)c(N)nc1N)[N+](C)(C)CCCc1ccc(O)cc1 [Example 121, ((S)-1-{[(3,5-Diamino-6-chloro-pyrazine-2-carbonyl)-amino]-methyl}-butyl)-[3-(4-hydroxy-phenyl)-propyl]-dimethyl-ammonium trifluoroacetate]",0.01
3,"C[N+](CCCc1ccc(OCC(O)CO)cc1)(CCCc1ccc(OCC(O)CO)cc1)CCNC(=O)c1nc(Cl)c(N)nc1N (centres unmarked) [Example 125, {2-[(3,5-Diamino-6-chloro-pyrazine-2-carbonyl)-amino]-ethyl}-bis-{3-[4-(2,3-dihydroxy-propoxy)-phenyl]-propyl}-methyl-ammonium trifluoroacetate]",0.24
4,"C[N+](C)(C)[C@H](CNC(=O)c1nc(Cl)c(N)nc1N)Cc1ccccc1 [Example 13, {(S)-1-Benzyl-2-[(3,5-diamino-6-chloro-pyrazine-2-carbonyl)-amino]-ethyl}-trimethyl-ammonium iodide]",0.17
5,"C[N+](C)(CCCc1ccc(OCCCc2ccc(OC[C@@H](O)CO)cc2)cc1)CCNC(=O)c1nc(Cl)c(N)nc1N [Example 29, {2-[(3,5-Diamino-6-chloro-pyrazine-2-carbonyl)-amino]-ethyl}-[3-(4-{3-[4-((S)-2,3-dihydroxy-propoxy)-phenyl]-propoxy}-phenyl)-propyl]-dimethyl-ammonium bromide]",0.025
6,"CCC[N+](CCCc1ccc(OC)cc1)(CCCc1ccc(OC)cc1)CCNC(=O)c1nc(Cl)c(N)nc1N [Example 21, {2-[(3,5-Diamino-6-chloro-pyrazine-2-carbonyl)-amino]-ethyl}-bis-[3-(4-methoxy-phenyl)-propyl]-propyl-ammonium trifluoroacetate]",5.69
7,"COc1ccc2c(c1)CCCC2CC(=O)NCC[N+](C)(C)CCNC(=O)c1nc(Cl)c(N)nc1N (centres unmarked) [Example 35, {2-[(3,5-Diamino-6-chloro-pyrazine-2-carbonyl)-amino]ethyl}-{2-[2-(6-methoxy-1,2,3,4-tetrahydro-naphthalen-1-yl)-acetylamino]-ethyl}-dimethyl-ammonium hexafluorophosphate]",0.41

# Further compounds by falling IC50, results first:
row,IC50 [µM],Structure (SMILES)
1,0.81,"C[N+](C)(CCNC(=O)CCc1ccc(F)cc1)CCNC(=O)c1nc(Cl)c(N)nc1N [Example 38, {2-[(3,5-Diamino-6-chloro-pyrazine-2-carbonyl)-amino]-ethyl}-{2-[3-(4-fluoro-phenyl)-propionylamino]-ethyl}-dimethyl-ammonium hexafluorophosphate]"
2,0.6,"C[N+](C)(CCCNC(=O)Cc1ccccc1)CCNC(=O)c1nc(Cl)c(N)nc1N [Example 53, {2-[(3,5-Diamino-6-chloro-pyrazine-2-carbonyl)-amino]-ethyl}-dimethyl-(3-phenylacetylamino-propyl)-ammonium hexafluorophosphate]"
3,0.42,"C[N+](C)(CCCNC(=O)Cc1ccc(Cl)cc1)CCNC(=O)c1nc(Cl)c(N)nc1N [Example 51, {3-[2-(4-Chloro-phenyl)-acetylamino]-propyl}-{2-[(3,5-diamino-6-chloro-pyrazine-2-carbonyl)-amino]-ethyl}-dimethyl-ammonium hexafluorophosphate]"
4,0.25,"C[N+](C)(CCCCCNS(=O)(=O)c1ccc(Cl)cc1)CCNC(=O)c1nc(Cl)c(N)nc1N [Example 94, [5-(4-Chloro-benzenesulfonylamino)-pentyl]-{2-[(3,5-diamino-6-chloro-pyrazine-2-carbonyl)-amino]-ethyl}-dimethyl-ammonium bromide]"
5,0.15,"C[N+](C)(CCCCNC(=O)CCc1ccc(Cl)cc1)CCNC(=O)c1nc(Cl)c(N)nc1N [Example 65, {4-[3-(4-Chloro-phenyl)-propionylamino]-butyl}-{2-[(3,5-diamino-6-chloro-pyrazine-2-carbonyl)-amino]-ethyl}-dimethyl-ammonium hexafluorophosphate]"
6,0.14,"C[N+](C)(CCNC(=O)CCc1ccccc1)CCNC(=O)c1nc(Cl)c(N)nc1N [Example 30, {2-[(3,5-Diamino-6-chloro-pyrazine-2-carbonyl)-amino]-ethyl}-dimethyl-2-[(3-phenyl-propionylamino)-ethyl]-ammonium hexafluorophosphate]"
7,0.02,"CCC[C@@H](CNC(=O)c1nc(Cl)c(N)nc1N)[N+](C)(C)C [Example 5, ((S)-1-{[(3,5-Diamino-6-chloro-pyrazine-2-carbonyl)-amino]-methyl}-butyl)-trimethyl-ammonium trifluoroacetate]"

# Reference: patent publication US8236808B2, “Pyrazine derivatives as ENAC blockers” (Novartis AG, priority 2008, dated 2012)
